Laboratory results from patent US20070093520A1, “Method of treatment of diarrhea-predominant irritable bowel syndrome in a subject” (priority 2005, published 2007).

Tested on: diarrhea-predominant IBS subjects
Experiment: 3007 Study: open-label 52-week safety study, adverse events and withdrawals
Conditions: Overall

With `Cc1nccn1C[C@H]1CCc2c(c3cccc4c3n2CCC4)C1=O` [cilansetron, (R)-(−)-4,5,6,8,9,10-hexahydro-10-[(2-methyl-1H-imidazol-1-yl)methyl]-11H-pyrido-[3,2,1-jk]-carbazol-11-one] the “TEAE: Sexual Desire Disorders” value was 1 (<1%) n (%), the “TEAE: Sick Sinus Syndrome” value was 1 (<1%) n (%) and the “TEAE: Sinus Arrhythmia” value was 1 (<1%) n (%). For the same molecule, the “TEAE: Sinus Congestion” value was 8 (1%) n (%), the “TEAE: Sinus Headache” value was 3 (<1%) n (%) and the “TEAE: Sinusitis Acute NOS” value was 1 (<1%) n (%). For the same molecule, the “TEAE: Sinusitis NOS” value was 37 (7%) n (%), the “TEAE: Site Specific Injuries NEC” value was 6 (1%) n (%) and the “TEAE: Skeletal and Cardiac Muscle Analyses” value was 27 (5%) n (%). For the same molecule, the “TEAE: Skin Disorder NOS” value was 1 (<1%) n (%), the “TEAE: Skin Fungal Infection NOS” value was 1 (<1%) n (%) and the “TEAE: Skin Infection NOS” value was 1 (<1%) n (%). For the same molecule, the “TEAE: Skin Injuries and Mechanical Dermatoses” value was 3 (<1%) n (%), the “TEAE: Skin Lesion NOS” value was 3 (<1%) n (%) and the “TEAE: Skin Neoplasms Benign” value was 1 (<1%) n (%). For the same molecule, the “TEAE: Skin Neoplasms Malignant and Unspecified (Excl Melanoma)” value was 6 (1%) n (%), the “TEAE: Skin Structures and Soft Tissue Infections” value was 3 (<1%) n (%) and the “TEAE: Skin Ulcer” value was 1 (<1%) n (%). The “TEAE: Skin and Subcutaneous Tissue Disorders” value was 39 (7%) n (%), the “TEAE: Skin and Subcutaneous Tissue Ulcerations” value was 1 (<1%) n (%) and the “TEAE: Sleep Apnoea Syndrome” value was 2 (<1%) n (%). For the same molecule, the “TEAE: Sleep Apnoeas” value was 2 (<1%) n (%), the “TEAE: Social Circumstances” value was 1 (<1%) n (%) and the “TEAE: Soft Tissue Disorders NEC” value was 2 (<1%) n (%). The “TEAE: Soft Tissue Neoplasms Benign NEC” value was 3 (<1%) n (%), the “TEAE: Somnolence” value was 2 (<1%) n (%) and the “TEAE: Speech and Language Abnormalities” value was 1 (<1%) n (%). The “TEAE: Spinal Cord and Nerve Root Disorders NEC” value was 1 (<1%) n (%), the “TEAE: Spondylitic Myelopathy” value was 1 (<1%) n (%) and the “TEAE: Spondyloarthropathies” value was 1 (<1%) n (%). For the same molecule, the “TEAE: Spondylosis” value was 1 (<1%) n (%), the “TEAE: Staphylococcal Infection NOS” value was 1 (<1%) n (%) and the “TEAE: Staphylococcal Infections” value was 1 (<1%) n (%). The “TEAE: Status Epilepticus” value was 1 (<1%) n (%), the “TEAE: Stomach Discomfort” value was 1 (<1%) n (%) and the “TEAE: Strabismus” value was 1 (<1%) n (%). The “TEAE: Streptococcal Infection NOS” value was 1 (<1%) n (%), the “TEAE: Streptococcal Infections” value was 8 (1%) n (%) and the “TEAE: Stress Fracture” value was 1 (<1%) n (%). The “TEAE: Stress Incontinence” value was 1 (<1%) n (%), the “TEAE: Stress Symptoms” value was 1 (<1%) n (%) and the “TEAE: Structural and Other Bile Duct Disorders” value was 1 (<1%) n (%). For the same molecule, the “TEAE: Sugar Intolerance (Excl Glucose Intolerance)” value was 1 (<1%) n (%), the “TEAE: Suicidal Ideation” value was 1 (<1%) n (%) and the “TEAE: Suicidal and Self-Injurious Behaviour” value was 1 (<1%) n (%). For the same molecule, the “TEAE: Supraventricular Arrhythmias” value was 4 (<1%) n (%), the “TEAE: Supraventricular Tachycardia” value was 1 (<1%) n (%) and the “TEAE: Surgical and Medical Procedures” value was 2 (<1%) n (%). The “TEAE: Sweating Increased” value was 2 (<1%) n (%), the “TEAE: Swelling Face” value was 1 (<1%) n (%) and the “TEAE: Tachycardia NOS” value was 1 (<1%) n (%). For the same molecule, the “TEAE: Temporomandibular Joint Disorder NOS” value was 1 (<1%) n (%), the “TEAE: Tenderness NOS” value was 1 (<1%) n (%) and the “TEAE: Tendon Disorders” value was 3 (<1%) n (%). For the same molecule, the “TEAE: Tendonitis” value was 2 (<1%) n (%), the “TEAE: Tension Headaches” value was 1 (<1%) n (%) and the “TEAE: Thoracic Cage Fractures and Dislocations” value was 1 (<1%) n (%). For the same molecule, the “TEAE: Thrombocytopenia” value was 1 (<1%) n (%), the “TEAE: Thrombocytopenias” value was 1 (<1%) n (%) and the “TEAE: Thrombophlebitis Superficial” value was 1 (<1%) n (%). For the same molecule, the “TEAE: Thyroid Disorders NEC” value was 1 (<1%) n (%), the “TEAE: Thyroid Hypofunction Disorders” value was 2 (<1%) n (%) and the “TEAE: Thyroid Neoplasms” value was 1 (<1%) n (%). The “TEAE: Thyroid Nodule” value was 1 (<1%) n (%), the “TEAE: Tinea Cruris” value was 1 (<1%) n (%) and the “TEAE: Tinea Infections” value was 2 (<1%) n (%). For the same molecule, the “TEAE: Tinea Pedis” value was 1 (<1%) n (%), the “TEAE: Tinnitus” value was 1 (<1%) n (%) and the “TEAE: Tissue Enzyme Analyses NEC” value was 3 (<1%) n (%). The “TEAE: Tongue Coated” value was 1 (<1%) n (%), the “TEAE: Tongue Signs and Symptoms” value was 1 (<1%) n (%) and the “TEAE: Tooth Abscess” value was 7 (1%) n (%). For the same molecule, the “TEAE: Tooth Disorder NOS” value was 1 (<1%) n (%), the “TEAE: Tooth Impacted” value was 1 (<1%) n (%) and the “TEAE: Tooth Infection” value was 2 (<1%) n (%). The “TEAE: Toothache” value was 3 (<1%) n (%), the “TEAE: Total Fluid Volume Decreased” value was 2 (<1%) n (%) and the “TEAE: Total Number of Subjects with at Least One TEAE” value was 437 (82%) n (%). For the same molecule, the “TEAE: Transient Global Amnesia” value was 1 (<1%) n (%), the “TEAE: Tremor” value was 2 (<1%) n (%) and the “TEAE: Tremor (Excl Congenital)” value was 2 (<1%) n (%). The “TEAE: Trigger Finger” value was 1 (<1%) n (%), the “TEAE: Triglyceride Analyses” value was 10 (2%) n (%) and the “TEAE: Tympanic Membrane Disorder NOS” value was 1 (<1%) n (%). The “TEAE: Tympanic Membrane Disorders (Excl Infections)” value was 1 (<1%) n (%), the “TEAE: Umbilical Hernia NOS” value was 1 (<1%) n (%) and the “TEAE: Umbilical Hernias” value was 1 (<1%) n (%). For the same molecule, the “TEAE: Upper Limb Fractures and Dislocations” value was 1 (<1%) n (%), the “TEAE: Upper Respiratory Tract Infection NOS” value was 26 (5%) n (%) and the “TEAE: Upper Respiratory Tract Infections - Pathogen Class Unspecified” value was 61 (11%) n (%). The “TEAE: Upper Respiratory Tract Signs and Symptoms” value was 7 (1%) n (%), the “TEAE: Urinalysis NEC” value was 16 (3%) n (%) and the “TEAE: Urinary Abnormalities” value was 6 (1%) n (%). The “TEAE: Urinary Frequency” value was 3 (<1%) n (%), the “TEAE: Urinary Incontinence” value was 1 (<1%) n (%) and the “TEAE: Urinary Retention” value was 1 (<1%) n (%). The “TEAE: Urinary Tract Infection NOS” value was 26 (5%) n (%), the “TEAE: Urinary Tract Infections” value was 29 (5%) n (%) and the “TEAE: Urinary Tract Lithiasis (Excl Renal)” value was 1 (<1%) n (%). The “TEAE: Urinary Tract Signs and Symptoms NEC” value was 1 (<1%) n (%), the “TEAE: Urine Abnormal NOS” value was 1 (<1%) n (%) and the “TEAE: Urine Analysis Abnormal NOS” value was 1 (<1%) n (%). The “TEAE: Urine Bilirubin Increased” value was 1 (<1%) n (%), the “TEAE: Urine Ketone Body Present” value was 5 (<1%) n (%) and the “TEAE: Urine Leukocyte Esterase Positive” value was 5 (<1%) n (%). For the same molecule, the “TEAE: Urobilin Urine Present” value was 1 (<1%) n (%), the “TEAE: Urticaria NOS” value was 3 (<1%) n (%) and the “TEAE: Urticarias” value was 3 (<1%) n (%). The “TEAE: Uterine Disorders NEC*” value was 2 (<1%) n (%), the “TEAE: Uterine Fibroids*” value was 1 (<1%) n (%) and the “TEAE: Uterine Neoplasms Benign*” value was 1 (<1%) n (%). The “TEAE: Uterine Neoplasms*” value was 2 (<1%) n (%), the “TEAE: Uterine Polyp NOS*” value was 2 (<1%) n (%) and the “TEAE: Vaginal Cyst*” value was 1 (<1%) n (%). For the same molecule, the “TEAE: Vaginal Lesion*” value was 1 (<1%) n (%), the “TEAE: Varicose Vein Ruptured” value was 2 (<1%) n (%) and the “TEAE: Varicose Veins Non-Site Specific” value was 2 (<1%) n (%). The “TEAE: Vascular Auscultatory Investigations” value was 2 (<1%) n (%), the “TEAE: Vascular Disorders” value was 21 (4%) n (%) and the “TEAE: Vascular Hypertensive Disorders NEC” value was 15 (3%) n (%). For the same molecule, the “TEAE: Vascular Hypotensive Disorders” value was 1 (<1%) n (%), the “TEAE: Vascular Tests NEC (Incl Blood Pressure)” value was 5 (<1%) n (%) and the “TEAE: Vasovagal Attack” value was 1 (<1%) n (%). For the same molecule, the “TEAE: Ventricular Arrhythmias and Cardiac Arrest” value was 2 (<1%) n (%), the “TEAE: Ventricular Extrasystoles” value was 1 (<1%) n (%) and the “TEAE: Vertigo” value was 2 (<1%) n (%). The “TEAE: Viral Infection NOS” value was 4 (<1%) n (%), the “TEAE: Viral Infections NEC” value was 15 (3%) n (%) and the “TEAE: Visual Acuity Reduced” value was 1 (<1%) n (%). For the same molecule, the “TEAE: Vitreous Disorder NOS” value was 1 (<1%) n (%), the “TEAE: Vomiting NOS” value was 18 (3%) n (%) and the “TEAE: Vulvovaginal Cysts and Neoplasms*” value was 1 (<1%) n (%). The “TEAE: Vulvovaginal Dryness*” value was 2 (<1%) n (%), the “TEAE: Vulvovaginal Signs and Symptoms*” value was 3 (<1%) n (%) and the “TEAE: Weight Decreased” value was 2 (<1%) n (%). The “TEAE: Weight Increased” value was 6 (1%) n (%), the “TEAE: Wheezing” value was 1 (<1%) n (%) and the “TEAE: White Blood Cell Analyses” value was 5 (<1%) n (%). For the same molecule, the “TEAE: White Blood Cell Count Decreased” value was 1 (<1%) n (%), the “TEAE: White Blood Cells Urine Positive” value was 1 (<1%) n (%) and the “TEAE leading to permanent discontinuation: Abdominal Distension” value (N=536) was 4 (<1%) n (%). The “TEAE leading to permanent discontinuation: Abdominal Pain Aggravated” value (N=536) was 1 (<1%) n (%), the “TEAE leading to permanent discontinuation: Abdominal Pain Lower” value (N=536) was 2 (<1%) n (%) and the “TEAE leading to permanent discontinuation: Abdominal Pain NOS” value (N=536) was 11 (2%) n (%). The “TEAE leading to permanent discontinuation: Abdominal Pain Upper” value (N=536) was 4 (<1%) n (%), the “TEAE leading to permanent discontinuation: Alanine Aminotransferase Increased” value (N=536) was 1 (<1%) n (%) and the “TEAE leading to permanent discontinuation: Angina Pectoris” value (N=536) was 1 (<1%) n (%). The “TEAE leading to permanent discontinuation: Appendicitis” value (N=536) was 1 (<1%) n (%), the “TEAE leading to permanent discontinuation: Asthma Aggravated” value (N=536) was 1 (<1%) n (%) and the “TEAE leading to permanent discontinuation: Asthma NOS” value (N=536) was 1 (<1%) n (%). For the same molecule, the “TEAE leading to permanent discontinuation: Back Pain” value (N=536) was 4 (<1%) n (%), the “TEAE leading to permanent discontinuation: Bladder Prolapse” value (N=536) was 1 (<1%) n (%) and the “TEAE leading to permanent discontinuation: Blood Bilirubin Increased” value (N=536) was 1 (<1%) n (%). The “TEAE leading to permanent discontinuation: Blood Pressure Increased” value (N=536) was 1 (<1%) n (%), the “TEAE leading to permanent discontinuation: Blood Urine Present” value (N=536) was 1 (<1%) n (%) and the “TEAE leading to permanent discontinuation: Bone Neoplasm Malignant” value (N=536) was 1 (<1%) n (%). The “TEAE leading to permanent discontinuation: Cardiac Disorders” value (N=536) was 1 (<1%) n (%), the “TEAE leading to permanent discontinuation: Chest Discomfort” value (N=536) was 1 (<1%) n (%) and the “TEAE leading to permanent discontinuation: Chest Pain” value (N=536) was 1 (<1%) n (%). For the same molecule, the “TEAE leading to permanent discontinuation: Chest Wall Pain” value (N=536) was 1 (<1%) n (%), the “TEAE leading to permanent discontinuation: Colitis Ischaemic” value (N=536) was 1 (<1%) n (%) and the “TEAE leading to permanent discontinuation: Constipation” value (N=536) was 28 (5%) n (%). For the same molecule, the “TEAE leading to permanent discontinuation: Cough” value (N=536) was 1 (<1%) n (%), the “TEAE leading to permanent discontinuation: Dehydration” value (N=536) was 1 (<1%) n (%) and the “TEAE leading to permanent discontinuation: Depression” value (N=536) was 1 (<1%) n (%). The “TEAE leading to permanent discontinuation: Diarrhoea Aggravated” value (N=536) was 2 (<1%) n (%), the “TEAE leading to permanent discontinuation: Diarrhoea Haemorrhagic” value (N=536) was 1 (<1%) n (%) and the “TEAE leading to permanent discontinuation: Diarrhoea NOS” value (N=536) was 6 (1%) n (%). The “TEAE leading to permanent discontinuation: Dizziness” value (N=536) was 2 (<1%) n (%).
